In brackets after ≈: the same amount, converted by molar mass.

The results in this text go back to patent publication US20250257077A1, “BRIDGED BICYCLIC HETEROCYCLOALKYL PYRIDO-[3,4-d]PYRIDAZINE AMINE DERIVATIVES USEFUL AS NLRP3 INHIBITORS” (Ventus Therapeutics U.S., Inc., priority 2022, published 2025).

A short description of data set [1]: Solubility Protocol in Phosphate Buffered Saline (PBS). The settings on record: kinetic solubility, PBS pH 7.4, 2 hours at room temperature; for solubility kinetic at 2 h: phosphate buffered saline (PBS), 18 °C, aqueous buffer, kinetic from dmso stock. It counts as physicochemical. The protocol:
(vi) Solubility Protocol in Phosphate Buffered Saline (PBS)
The kinetic solubility of test compounds and control compounds was measured in commercial phosphate buffered saline (PBS), pH 7.4 (Wisent, Canada).
Briefly, a stock solution (20 mM DMSO for controls, and 10 mM DMSO for test compounds) was combined with PBS buffer to reach a targeted concentration of 400 μM for controls and 200 μM for test compounds. The spiked-PBS mixtures were then agitated on a VX-2500 multi-tube vortexer (VWR) for 2 hours at room temperature (18° C.). Following agitation, the samples were filtered on a glass fiber filter (1 μm) and the eluates were diluted 400-fold with a mixture of acetonitrile:water (1:1). Solubility determination was then performed against one standard sample prepared in high organic content at the expected top concentration. The lower limit of quantification was arbitrarily set at 1 μM (400-fold dilution of the top concentration) for assay controls, and 0.5 μM for test compounds. On each experimental run, nicardipine and imipramine were assessed as reference compounds for low and high solubility, respectively. All samples were assessed in triplicate and analyzed by LC-MS/MS (using a CTC PAL autosampler, Thermo Accela UPLC, and a Thermo Quantum mass spectrometer) using electrospray ionization against standards prepared in the same matrix

The target of a further data set is T1, human NLRP3 (Homo sapiens, UniProt Q96P20).
T1 construct: Human whole blood is drawn from healthy volunteers after obtaining written informed consent; from tissue
The experiment in a line: Human Whole Blood (hWB) NLRP3 Assay. It counts as cell-based. Conditions: LPS priming, ATP activation, IL-1β levels. As for the experimental part: (ii) Human Whole Blood (hWB) NLRP3 Assay
Human whole blood is drawn from healthy volunteers after obtaining written informed consent. Heparin lithium coated tubes are used to collect blood from volunteers. Blood samples are distributed on 96 well plates using 90 μl per well. Priming is performed by adding 5 μl of LPS (026: B6; Sigma L-2654) at a final concentration of 1 μg/ml for 4.5 hours in a humidified incubator with 37° C. 5% CO2. Thirty minutes prior to NLRP3 activation, 5 μl of a 20× compound solution or vehicle (2% dimethylsulfoxide (DMSO)) is added to each well and plates were incubated on a shaker (450 rpm) in a humidified incubator with 37° C., 5% CO2. Activation is then performed by adding 3.3 μl of a 31× ATP solution per well. At the end of the 30 minutes stimulation, the plates are centrifuged (800 g, 10 min, room temperature) and the plasma from each well is frozen at −80° C. IL-1β levels in the supernatant were analyzed using a mesoscale discovery assay (MSD K151TUK) according to the manufacturers’ instructions.

Data set [2] in a line: Mouse Hepatocyte Stability Assay. It counts as in vitro ADME. Conditions: mouse hepatocytes, 37° C.; read-out: Hep (mouse) (t½ min). As for the experimental part: (§1) (v) Mouse and Human Hepatocyte Stability Assays
(§2) A hepatocyte stability assay is a laboratory-based method used to determine the metabolic stability of a compound in hepatocytes (liver cells). This assay provides valuable information about how quickly a drug is metabolized in the liver and can be used to assess its potential effectiveness and safety in drug discovery.
(§3) In the assay, cither human or mouse hepatocytes are incubated with the test compound at a controlled temperature of 37° C., for different time periods (e.g., 5, 15, 30, 60, and 120 minutes). At each time point during the incubation, samples are taken, the reaction is terminated, and the amount of test compound remaining analyzed using LC-MS/MS to monitor the disappearance of the test compound over time (Gradient). […] See, e.g., Coe et al., Methods in Pharmacology & Toxicology (2008) 151.

A short description of data set [3]: Human Hepatocyte Stability Assay. It counts as in vitro ADME. The settings on record: human hepatocytes, 37° C.; read-out: Hep (human) (t½ min). As for the experimental part:
as §1, §2, §3

Data set [4] can be described thus: Brain Levels (Kp and Kpu,u). It counts as in vivo, CDI mice. The settings on record: CDI, mouse, brain (whole brain homogenate) relative to plasma, po, 20 mg/kg; for Kpu,u: Kp corrected with mouse plasma protein binding and mouse brain homogenates binding, 20 mpk PO, read-out: Kpu,u; for Kp at 24 h: mice dosed at 20 mpk PO, whole brain AUC over 24 h divided by plasma AUC. As for the experimental part: (iv) Brain Levels (Kp and Kpu,u)—NLRP3
The in vivo total brain to plasma ratio was assessed in CDI mice after oral administration of the compound. Blood was collected at several timepoints up to 24 h, and transferred into plastic micro centrifuge tubes with EDTA-K2 as anticoagulant. Blood samples were centrifuged at 4000 g for 5 minutes at 4° C., to obtain plasma, then immediately frozen and stored at −75±15° C., prior to analysis. Animals were terminally anaesthetized with a rising concentration of CO2 gas at about 1 minute. At selected timepoints, whole brains were removed from the skull, rinsed in cold PBS to remove blood, dried with clean gauze, then frozen in liquid nitrogen and kept at −75±15° C. before analysis. At the time of analysis, brain samples were homogenized with PBS by tissue weight (g) to PBS volume (mL) ratio 1:3.
Plasma and brain drug levels were quantified by LC/MS/MS on an AB Sciex Triple Quad 5500+instrument, after separation on a HALO 160 A ES-C18, 2.7 μm 2.1×50 mm column. Quantitation was performed using a calibration curve prepared in blank plasma or blank brain homogenate. The software WinNonlin (Phoenix™) was used for pharmacokinetic analysis from the concentrations versus time data, including the AUCinf and AUClast. The Kp ratio (total brain concentration over total plasma concentration) was calculated as (AUCtot,br)/(AUCtot,pl).
The unbound brain exposure was assessed as Kpuu, which is the free brain/free plasma concentration ratio (Cu,bt/Cu,pl). The Cu,br/Cu,pl ratios were obtained from in vivo total brain to plasma ratios (Ctot,br/Ctot,pl) by using in vitro determined Fu,br and Fu,pl.
Plasma protein binding and brain homogenate protein binding were measured by equilibrium dialysis in a HTDialysis plate. The dialysis membranes were soaked in ultrapure water for 60 minutes to separate strips, then in 20% ethanol for 20 minutes, finally in dialysis buffer for 20 minutes. The dialysis set up was assembled according to the manufacturer's instruction. Each cell received 150 μL of plasma or brain homogenate spiked with 1 mM of compound, and dialyzed against an equal volume of dialysis buffer (PBS). The dialysis plate was sealed and incubated in an incubator at 37° C. with 5% CO2 at 100 rpm for 6 hours. At the end of incubation, compound concentration was measured in both chambers by LC-MS/MS on a Triple Quad™ 5500 from AB Inc after separation on a XSelect Hss T3.2.5μ (2.1×30 mm) column. Free fraction (Fu) was calculated as (Peak Area Ratio buffer chamber/Peak Area Ratio plasma chamber). Kpuu=(AUCtot,br×Fu,br)/([…])
The Kpu,u was then calculated upon correcting this kp value with mouse plasma protein binding and mouse brain homogenates binding.
A Kpu,u value >0.3 is considered brain penetrant, and a Kpu,u value ≤0.3 is not considered brain penetrant. When the Kpu,u value is not determined, the Kp value may be useful as a metric of potential brain penetrance if the Kp value is >0.3.

T1 sequence (Q96P20 whole entry): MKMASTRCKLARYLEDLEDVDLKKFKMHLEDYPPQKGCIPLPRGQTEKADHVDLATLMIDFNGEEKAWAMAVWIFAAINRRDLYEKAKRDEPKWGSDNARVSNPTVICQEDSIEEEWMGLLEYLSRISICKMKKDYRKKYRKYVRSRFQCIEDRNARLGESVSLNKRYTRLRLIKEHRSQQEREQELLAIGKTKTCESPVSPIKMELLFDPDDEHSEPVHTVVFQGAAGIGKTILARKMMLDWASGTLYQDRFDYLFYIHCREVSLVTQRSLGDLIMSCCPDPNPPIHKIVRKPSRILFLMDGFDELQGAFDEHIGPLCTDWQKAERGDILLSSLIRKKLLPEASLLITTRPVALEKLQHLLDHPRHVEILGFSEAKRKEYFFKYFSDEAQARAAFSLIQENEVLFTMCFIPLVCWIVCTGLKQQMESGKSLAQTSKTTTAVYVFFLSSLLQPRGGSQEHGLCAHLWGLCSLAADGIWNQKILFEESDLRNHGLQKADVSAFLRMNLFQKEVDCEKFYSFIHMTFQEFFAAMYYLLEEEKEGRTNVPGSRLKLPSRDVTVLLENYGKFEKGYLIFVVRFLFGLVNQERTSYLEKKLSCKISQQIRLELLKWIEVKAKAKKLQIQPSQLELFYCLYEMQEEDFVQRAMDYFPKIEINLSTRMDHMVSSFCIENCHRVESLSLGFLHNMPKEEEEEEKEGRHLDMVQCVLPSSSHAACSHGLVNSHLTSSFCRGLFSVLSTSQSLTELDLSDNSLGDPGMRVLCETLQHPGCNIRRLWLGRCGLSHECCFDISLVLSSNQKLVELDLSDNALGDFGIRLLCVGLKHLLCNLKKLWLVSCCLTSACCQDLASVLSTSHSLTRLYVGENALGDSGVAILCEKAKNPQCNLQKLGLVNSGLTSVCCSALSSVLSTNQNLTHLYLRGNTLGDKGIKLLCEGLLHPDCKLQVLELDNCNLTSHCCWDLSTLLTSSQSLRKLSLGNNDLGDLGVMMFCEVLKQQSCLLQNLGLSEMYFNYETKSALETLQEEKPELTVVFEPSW

Consider `Oc1cc(C(F)(F)F)ccc1-c1nnc(N[C@H]2[C@@H]3CC[C@H]2COC3)c2cnccc12` [Compound 13A, 2-(4-(((1R,5S,8s)-3-oxabicyclo[3.2.1]octan-8-yl)amino)pyrido[3,4-d]pyridazin-1-yl)-5-(trifluoromethyl)phenol], for which, in data set [1], the “Sol (PBS)” value came to 1.4 µM and the solubility (kinetic) (commonly the concentration staying in solution when a stock, usually in DMSO, is diluted into the medium) at 2 h amounted to 1.4 µM (≈ 0.583 µg/mL). Also, at human NLRP3, the IC50 (usually the concentration needed to halve the response being measured) is 0.34 µM. In addition, in data set [2], the half-life is 1.67 h. For the same compound, the half-life in data set [3] worked out at 4.83 h. Further, in data set [4], the Kpu,u worked out at 0.08 and the Kp – broadly, tissue or fluid exposure divided by exposure in the circulation – at 24 h stood at 0.1.

`Oc1cc(C(F)F)ccc1-c1nnc(N[C@H]2[C@@H]3CC[C@H]2COC3)c2cnccc12` [Compound 14A, 2-(4-(((1R,5S,8s)-3-oxabicyclo[3.2.1]octan-8-yl)amino)pyrido[3,4-d]pyridazin-1-yl)-5-(difluoromethyl)phenol]: in data set [1], the “Sol (PBS)” value turned out to be 11 µM and the solubility (kinetic) at 2 h worked out at 11 µM (≈ 4.38 µg/mL). Further, at human NLRP3, the IC50 was 0.2 µM. The half-life in data set [2] amounted to 2 h. In data set [3], the half-life is greater than 8 h. In addition, in data set [4], the Kpu,u was 0.2 and the Kp at 24 h is 0.37.

For `Cc1ccc(-c2nnc(N[C@H]3[C@@H]4CC[C@H]3COC4)c3cnccc23)c(O)c1F` [Compound 15A, 6-(4-(((1R,5S,8s)-3-oxabicyclo[3.2.1]octan-8-yl)amino)pyrido[3,4-d]pyridazin-1-yl)-2-fluoro-3-methylphenol], in data set [1], the “Sol (PBS)” value was greater than 300 µM and the kinetic solubility at 2 h was greater than 300 µM. For the same compound, inhibition against human NLRP3 was half-maximal at 0.34 µM (IC50). In addition, the half-life in data set [2] was 0.483 h. The half-life in data set [3] was greater than 8 h. Besides, in data set [4], the Kpu,u turned out to be 0.45 and the Kp at 24 h turned out to be 0.41.
